Experiments:
[1] = molecular target: T1, mitochondrial pyruvate carrier (MPC) (Homo sapiens, UniProt O95563+Q9Y5U8); assay: Bret IC50, inhibitory activity against MPC; format: cell-based
T1 sequence (Q9Y5U8 1-109): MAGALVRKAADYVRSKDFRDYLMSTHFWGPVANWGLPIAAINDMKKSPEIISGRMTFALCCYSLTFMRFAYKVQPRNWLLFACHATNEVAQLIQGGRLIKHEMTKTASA
T1 sequence (O95563 1-127): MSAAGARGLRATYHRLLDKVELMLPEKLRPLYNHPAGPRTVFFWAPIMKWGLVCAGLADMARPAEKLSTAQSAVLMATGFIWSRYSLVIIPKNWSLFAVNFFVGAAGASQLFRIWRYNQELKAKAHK
From the text: (§1) The inhibition of mitochondrial pyruvate carrier (MPC) by compounds of the invention have been tested as follows and their inhibitory activity was expressed as IC50s values.
Table 2 below presents the IC50s of the compounds of the invention.

[2] = molecular target: T1, mitochondrial pyruvate carrier (MPC); assay: Seahorse Xfe24 pyruvate-dependent OCR in HeLa cells; format: cell-based; conditions: pyruvate-dependent OCR in presence of fCCP
Description: as §1
Cells are plated in the customized Seahorse plates. For HeLa cells, seeding is at 4×10^4 cells/well in […] DMEM, 10% FBS, 1% pen/strep/glutamine. 3 wells are left blank (medium alone) for internal calibration. The assay cartridge is hydrated overnight at 37° C. in 1 ml/well XF Calibrant Solution.
Since 50 μl of compound of the invention will be injected into 450 μl washed cells, compounds are made up in assay medium at 10× the final desired concentration
For dose response analyses, compounds are tested at final concentrations 30, 5, 0.83, 0.14, 0.023 μM (1:6 serial dilutions from […])
Positive control: […] (the parent hit compound which gave rise to the actual series)
Negative control: Assay medium alone.
The seahorse reagent plate is prepared as follows and transfered to the Xfe24 analyser for the calibration step:
The medium is almost completely removed from the well without allowing cells to dry Cells are washed twice with 300 μl Assay Medium. 450 μl fresh Assay Medium is added to each well. The plate is transferred to the Xfe24 analyser for measurement of pyruvate-dependent OCR. All values are normalized to the initial basal respiration rate in each well which is measured prior to addition of compounds and designated as 100%. IC50 determination is based on the average of the 3 measurements made in the presence of fCCP, taking 30 μM parent hit compound as maximal inhibition and PBS/Ca/Mg as zero inhibition.

IC50 [1]: 0.117 µM
IC50 [2]: 0.064 µM
Structure (SMILES): O=c1cc(Cc2ccccc2)n2c(SCc3c(F)cccc3Cl)nnc2[nH]1 [Compound 45, 5-benzyl-3-[(2-chloro-6-fluorobenzyl)sulfanyl][1,2,4]triazolo[4,3-a]pyrimidin-7 (8H)-one]
